Measurements taken from US9402395B2, “Insecticidal compounds” (Syngenta Participations AG, priority 2013, dated 2016).

How the values were obtained:
Assay type in all cases: in vivo
Spodoptera littoralis = Spodoptera littoralis (Egyptian cotton leafworm) cotton leaf disc spray test; conditions: foliar, 72 h, application rate of 200 ppm, cotton leaf discs, L1 larvae, mortality, feeding behavior, growth regulation 3 days after treatment
From the text: Spodoptera littoralis (Egyptian cotton leafworm): Cotton leaf discs were placed on agar in a 24-well microtiter plate and sprayed with test solutions at an application rate of 200 ppm. After drying, the leaf discs were infested with 5 L1 larvae. The samples were checked for mortality, feeding behavior, and growth regulation 3 days after treatment (DAT).

Plutella xylostella = Plutella xylostella (Diamond back moth) larva test on artificial diet; conditions: 144 h, application rate of 200 ppm (concentration in well 18 ppm), L2 larvae, larval mortality and growth regulation after 6 days
Procedure: (§1) Plutella xylostella (Diamond back moth): 24-well microtiter plate (MTP) with artificial diet was treated with test solutions at an application rate of 200 ppm (concentration in well 18 ppm) by pipetting. After drying, the MTP's were infested with L2 larvae (7-12 per well). After an incubation period of 6 days, samples were checked for larval mortality and growth regulation.

Myzus persicae = Myzus persicae (Green peach aphid) sunflower leaf disc spray test; conditions: foliar, 144 h, application rate of 200 ppm, sunflower leaf discs, aphid population of mixed ages, mortality after 6 DAT
Procedure: Myzus persicae (Green peach aphid): Sunflower leaf discs were placed on agar in a 24-well microtiter plate and sprayed with test solutions at an application rate of 200 ppm. After drying, the leaf discs were infested with an aphid population of mixed ages. After an incubation period of 6 DAT, samples were checked for mortality.

Thrips tabaci = Thrips tabaci (Onion thrips) sunflower leaf disc spray test; conditions: foliar, 168 h, application rate of 200 ppm, sunflower leaf discs, population of mixed ages, mortality after 7 days
Procedure: Thrips tabaci (Onion thrips): Sunflower leaf discs were placed on agar in a 24-well microtiter plate and sprayed with test solutions at an application rate of 200 ppm. […] After an incubation period of 7 days, samples were checked for mortality.

Tetranychus urticae = Tetranychus urticae (Two-spotted spider mite) bean leaf disc spray test; conditions: foliar, 192 h, application rate of 200 ppm, bean leaf discs, mite populations of mixed ages, egg, larval and adult mortality 8 days later
From the text: Tetranychus urticae (Two-spotted spider mite): Bean leaf discs on agar in 24-well microtiter plates were sprayed with test solutions at an application rate of 200 ppm. After drying, the leaf discs are infested with mite populations of mixed ages. 8 days later, discs are checked for egg mortality, larval mortality, and adult mortality.

Heliothis virescens = Heliothis virescens (Tobacco budworm) egg/larva test on artificial diet; conditions: 96 h, application rate of 200 ppm (concentration in well 18 ppm), eggs 0-24 h old on artificial diet, egg mortality, larval mortality, growth regulation after 4 days
Procedure: Heliothis virescens (Tobacco budworm): Eggs (0-24 h old) were placed in 24-well microtiter plate on artificial diet and treated with test solutions at an application rate of 200 ppm (concentration in well 18 ppm) by pipetting. After an incubation period of 4 days, samples were checked for egg mortality, larval mortality, and growth regulation.

Diabrotica balteata = Diabrotica balteata (Corn root worm) larva test on artificial diet; conditions: 120 h, application rate of 200 ppm (concentration in well 18 ppm), L2 larvae, larval mortality and growth regulation after 5 days
Procedure: as §1, with “Diabrotica balteata (Corn root worm): A” for “Plutella xylostella (Diamond back moth):”, “(6-10” for “(7-12”, “5” for “6”

Measured: pest or weed control at 200 ppm

CCCN(C(=O)c1ccc[n+]([O-])c1)c1cccc(C(=O)N(C)c2c(Cl)cc(C(F)(C(F)(F)F)C(F)(F)F)cc2Br)c1F [Compound 1, N′-[3-[[2-bromo-6-chloro-4-[1,1,1,2,3,3,3-heptafluoro-prop-2-yl]phenyl]-N′-methyl-carbamoyl]-2-fluoro-phenyl]-N-propyl-1-oxido-pyridin-1-ium-3-carboxamide]
not listed: Heliothis virescens | Diabrotica balteata
≥ 80%: all other assays above

CCc1cc(C(F)(C(F)(F)F)C(F)(F)F)cc(Br)c1N(C)C(=O)c1cccc(N(C)C(=O)c2cccnc2)c1F [Compound 2]
≥ 80%: all assays above

Cc1cc(C(F)(C(F)(F)F)C(F)(F)F)cc(Br)c1N(C)C(=O)c1cccc(N(C)C(=O)c2cccnc2)c1F [Compound 3]
not listed: Tetranychus urticae
≥ 80%: all other assays above

CN(C(=O)c1cccnc1)c1cccc(C(=O)Nc2c(Cl)cc(C(F)(C(F)(F)F)C(F)(F)F)cc2Br)c1F [Compound 4]
not listed: Spodoptera littoralis
≥ 80%: all other assays above

CN(C(=O)c1ccc[n+]([O-])c1)c1cccc(C(=O)Nc2c(Cl)cc(C(F)(C(F)(F)F)C(F)(F)F)cc2Br)c1F [Compound 5]
not listed: Thrips tabaci
≥ 80%: all other assays above

CCN(C(=O)c1cccnc1)c1cccc(C(=O)Nc2c(Cl)cc(C(F)(C(F)(F)F)C(F)(F)F)cc2Br)c1F [Compound 6]
≥ 80%: all assays above

CCN(C(=O)c1ccc[n+]([O-])c1)c1cccc(C(=O)Nc2c(Cl)cc(C(F)(C(F)(F)F)C(F)(F)F)cc2Br)c1F [Compound 7]
not listed: Thrips tabaci
≥ 80%: all other assays above

CCCN(C(=O)c1cccnc1)c1cccc(C(=O)Nc2c(Cl)cc(C(F)(C(F)(F)F)C(F)(F)F)cc2Cl)c1 [Compound 8]
not listed: Tetranychus urticae
≥ 80%: all other assays above

CCCN(C(=O)c1ccc[n+]([O-])c1)c1cccc(C(=O)Nc2c(Cl)cc(C(F)(C(F)(F)F)C(F)(F)F)cc2Cl)c1 [Compound 9]
≥ 80%: Heliothis virescens | Plutella xylostella | Myzus persicae | Thrips tabaci

CCN(C(=O)c1cccnc1)c1cccc(C(=O)Nc2c(Br)cc(C(F)(C(F)(F)F)C(F)(F)F)cc2Br)c1F [Compound 11]
≥ 80%: all assays above

CN(C(=O)c1cccnc1)c1cccc(C(=O)Nc2c(Br)cc(C(F)(C(F)(F)F)C(F)(F)F)cc2Br)c1F [Compound 12]
≥ 80%: all assays above

CCN(C(=O)c1ccc[n+]([O-])c1)c1cccc(C(=O)Nc2c(Br)cc(C(F)(C(F)(F)F)C(F)(F)F)cc2Br)c1F [Compound 13]
≥ 80%: all assays above

CN(C(=O)c1cccnc1)c1cccc(C(=O)N(C)c2c(Br)cc(C(F)(C(F)(F)F)C(F)(F)F)cc2Br)c1 [Compound 15]
not listed: Tetranychus urticae | Diabrotica balteata
≥ 80%: all other assays above

CCN(C(=O)c1cccnc1)c1cccc(C(=O)Nc2c(Cl)cc(C(F)(C(F)(F)F)C(F)(F)F)cc2Cl)c1F [Compound 16]
≥ 80%: all assays above

Cc1cc(C(F)(C(F)(F)F)C(F)(F)F)cc(Cl)c1NC(=O)c1cccc(N(C)C(=O)c2cccnc2)c1F [Compound 17]
≥ 80%: all assays above

CCN(C(=O)c1cccnc1)c1cccc(C(=O)Nc2c(C)cc(C(F)(C(F)(F)F)C(F)(F)F)cc2Cl)c1F [Compound 18]
≥ 80%: all assays above
